Test results reported in article PMC9609070 (ACS Omega, 2022).
Read-outs that look alike come from different tables or passages of the source.

Legend:
[1] = Apparent thermodynamic functions of mixing; type: physicochemical; details: Thm=303.0 K
Solid-phase analyses = type: physicochemical; details: after saturation in neat water, x1=0.50 mixture and neat NMP
[2] = cited from earlier work
[3] = calculated by Fedors' groups contribution method; cited from earlier work
[4] = neat water, x1=0.000, cited from earlier work
[5] = Apparent thermodynamic functions of dissolution; type: physicochemical; details: Thm=303.0 K
[6] = cited from earlier work; remark: listed apart in the source

Cc1cnc(NC(=O)C2=C(O)c3ccccc3S(=O)(=O)N2C)s1 [Meloxicam, 4-hydroxy-2-methyl-N-(5-methyl-2-thiazolyl)-2H-1,2-benzothiazine-3-carboxamide-1,1-dioxide]
ΔmixG° (apparent Gibbs energy of mixing) ([1]; NMP+water, x1=0.100): 13.24 kJ·mol^–1
ΔmixH° (apparent enthalpy of mixing) ([1]; NMP+water, x1=0.100): 3.14 kJ·mol^–1
ΔmixS° (apparent entropy of mixing) ([1]; NMP+water, x1=0.100): –33.32 J·mol^–1·K^–1
ΔmixG° (apparent Gibbs energy of mixing) ([1]; NMP+water, x1=0.200): 8.18 kJ·mol^–1
ΔmixH° (apparent enthalpy of mixing) ([1]; NMP+water, x1=0.200): 0.11 kJ·mol^–1
ΔmixS° (apparent entropy of mixing) ([1]; NMP+water, x1=0.200): –26.62 J·mol^–1·K^–1
ΔmixG° (apparent Gibbs energy of mixing) ([1]; NMP+water, x1=0.300): 4.22 kJ·mol^–1
ΔmixH° (apparent enthalpy of mixing) ([1]; NMP+water, x1=0.300): –3.31 kJ·mol^–1
ΔmixS° (apparent entropy of mixing) ([1]; NMP+water, x1=0.300): –24.85 J·mol^–1·K^–1
ΔmixG° (apparent Gibbs energy of mixing) ([1]; NMP+water, x1=0.400): 1.15 kJ·mol^–1
ΔmixH° (apparent enthalpy of mixing) ([1]; NMP+water, x1=0.400): –7.38 kJ·mol^–1
ΔmixS° (apparent entropy of mixing) ([1]; NMP+water, x1=0.400): –28.14 J·mol^–1·K^–1
ΔmixG° (apparent Gibbs energy of mixing) ([1]; NMP+water, x1=0.500): –1.16 kJ·mol^–1
ΔmixH° (apparent enthalpy of mixing) ([1]; NMP+water, x1=0.500): –10.00 kJ·mol^–1
ΔmixS° (apparent entropy of mixing) ([1]; NMP+water, x1=0.500): –29.18 J·mol^–1·K^–1
ΔmixG° (apparent Gibbs energy of mixing) ([1]; NMP+water, x1=0.600): –2.74 kJ·mol^–1
ΔmixH° (apparent enthalpy of mixing) ([1]; NMP+water, x1=0.600): –6.91 kJ·mol^–1
ΔmixS° (apparent entropy of mixing) ([1]; NMP+water, x1=0.600): –13.74 J·mol^–1·K^–1
ΔmixG° (apparent Gibbs energy of mixing) ([1]; NMP+water, x1=0.700): –3.72 kJ·mol^–1
ΔmixH° (apparent enthalpy of mixing) ([1]; NMP+water, x1=0.700): 1.42 kJ·mol^–1
ΔmixS° (apparent entropy of mixing) ([1]; NMP+water, x1=0.700): 16.95 J·mol^–1·K^–1
ΔmixG° (apparent Gibbs energy of mixing) ([1]; NMP+water, x1=0.800): –4.65 kJ·mol^–1
ΔmixH° (apparent enthalpy of mixing) ([1]; NMP+water, x1=0.800): –0.68 kJ·mol^–1
ΔmixS° (apparent entropy of mixing) ([1]; NMP+water, x1=0.800): 13.10 J·mol^–1·K^–1
ΔmixG° (apparent Gibbs energy of mixing) ([1]; NMP+water, x1=0.900): –5.56 kJ·mol^–1
ΔmixH° (apparent enthalpy of mixing) ([1]; NMP+water, x1=0.900): –5.29 kJ·mol^–1
ΔmixS° (apparent entropy of mixing) ([1]; NMP+water, x1=0.900): 0.90 J·mol^–1·K^–1
ΔmixG° (apparent Gibbs energy of mixing) ([1]; neat NMP, x1=1.000): –6.17 kJ·mol^–1
ΔmixH° (apparent enthalpy of mixing) ([1]; neat NMP, x1=1.000): –3.73 kJ·mol^–1
ΔmixS° (apparent entropy of mixing) ([1]; neat NMP, x1=1.000): 8.07 J·mol^–1·K^–1
ΔmixG° (apparent Gibbs energy of mixing) ([1]; neat water, x1=0.000): 20.19 kJ·mol^–1
ΔmixH° (apparent enthalpy of mixing) ([1]; neat water, x1=0.000): –17.09 kJ·mol^–1
ΔmixS° (apparent entropy of mixing) ([1]; neat water, x1=0.000): –123.02 J·mol^–1·K^–1
Crystal form after saturation (XRD, FTIR) (Solid-phase analyses): did not suffer crystal polymorphic transitions or solvate formation
Solubility-increasing effect ([2]; Carbitol as cosolvent): 1144 times
Solubility-increasing effect ([2]; N,N-dimethylformamide (DMF) as cosolvent): 11,233 times
Solubility-increasing effect ([2]; N-methylformamide (NMF) as cosolvent): 1399 times
Solubility-increasing effect ([2]; dimethyl sulfoxide (DMSO) as cosolvent): 6956 times
Hildebrand solubility parameter δ3 [3]: 32.1 MPa^1/2
Experimental molar solubility (C) ([4]; T=293.15 K): 6.027 × 10^–5 mol·dm^–3
Experimental mole fraction solubility (x3) ([4]; T=293.15 K): 1.088 × 10^–6 mole fraction
Experimental molar solubility (C) ([4]; T=298.15 K): 6.290 × 10^–5 mol·dm^–3
Experimental mole fraction solubility (x3) ([4]; T=298.15 K): 1.137 × 10^–6 mole fraction
Experimental molar solubility (C) ([4]; T=303.15 K): 6.557 × 10^–5 mol·dm^–3
Experimental mole fraction solubility (x3) ([4]; T=303.15 K): 1.187 × 10^–6 mole fraction
Experimental molar solubility (C) ([4]; T=308.15 K): 6.962 × 10^–5 mol·dm^–3
Experimental mole fraction solubility (x3) ([4]; T=308.15 K): 1.262 × 10^–6 mole fraction
Experimental mole fraction solubility (x3) ([4]; T=313.15 K): 1.329 × 10^–6 mole fraction
TΔsolnS° ([5]; NMP+water, x1=0.100): 0.52 kJ·mol^–1
ΔsolnG° (apparent Gibbs energy of dissolution) ([5]; NMP+water, x1=0.100): 27.40 kJ·mol^–1
ΔsolnH° (apparent enthalpy of dissolution) ([5]; NMP+water, x1=0.100): 27.92 kJ·mol^–1
ΔsolnS° (apparent entropy of dissolution) ([5]; NMP+water, x1=0.100): 1.71 J·mol^–1·K^–1
TΔsolnS° ([5]; NMP+water, x1=0.200): 2.55 kJ·mol^–1
ΔsolnG° (apparent Gibbs energy of dissolution) ([5]; NMP+water, x1=0.200): 22.34 kJ·mol^–1
ΔsolnH° (apparent enthalpy of dissolution) ([5]; NMP+water, x1=0.200): 24.89 kJ·mol^–1
ΔsolnS° (apparent entropy of dissolution) ([5]; NMP+water, x1=0.200): 8.41 J·mol^–1·K^–1
TΔsolnS° ([5]; NMP+water, x1=0.300): 3.08 kJ·mol^–1
ΔsolnG° (apparent Gibbs energy of dissolution) ([5]; NMP+water, x1=0.300): 18.38 kJ·mol^–1
ΔsolnH° (apparent enthalpy of dissolution) ([5]; NMP+water, x1=0.300): 21.46 kJ·mol^–1
ΔsolnS° (apparent entropy of dissolution) ([5]; NMP+water, x1=0.300): 10.18 J·mol^–1·K^–1
TΔsolnS° ([5]; NMP+water, x1=0.400): 2.09 kJ·mol^–1
ΔsolnG° (apparent Gibbs energy of dissolution) ([5]; NMP+water, x1=0.400): 15.31 kJ·mol^–1
ΔsolnH° (apparent enthalpy of dissolution) ([5]; NMP+water, x1=0.400): 17.40 kJ·mol^–1
ΔsolnS° (apparent entropy of dissolution) ([5]; NMP+water, x1=0.400): 6.89 J·mol^–1·K^–1
TΔsolnS° ([5]; NMP+water, x1=0.500): 1.77 kJ·mol^–1
ΔsolnG° (apparent Gibbs energy of dissolution) ([5]; NMP+water, x1=0.500): 13.00 kJ·mol^–1
ΔsolnH° (apparent enthalpy of dissolution) ([5]; NMP+water, x1=0.500): 14.78 kJ·mol^–1
ΔsolnS° (apparent entropy of dissolution) ([5]; NMP+water, x1=0.500): 5.85 J·mol^–1·K^–1
TΔsolnS° ([5]; NMP+water, x1=0.600): 6.45 kJ·mol^–1
ΔsolnG° (apparent Gibbs energy of dissolution) ([5]; NMP+water, x1=0.600): 11.42 kJ·mol^–1
ΔsolnH° (apparent enthalpy of dissolution) ([5]; NMP+water, x1=0.600): 17.87 kJ·mol^–1
ΔsolnS° (apparent entropy of dissolution) ([5]; NMP+water, x1=0.600): 21.28 J·mol^–1·K^–1
TΔsolnS° ([5]; NMP+water, x1=0.700): 15.75 kJ·mol^–1
ΔsolnG° (apparent Gibbs energy of dissolution) ([5]; NMP+water, x1=0.700): 10.45 kJ·mol^–1
ΔsolnH° (apparent enthalpy of dissolution) ([5]; NMP+water, x1=0.700): 26.20 kJ·mol^–1
ΔsolnS° (apparent entropy of dissolution) ([5]; NMP+water, x1=0.700): 51.98 J·mol^–1·K^–1
TΔsolnS° ([5]; NMP+water, x1=0.800): 14.58 kJ·mol^–1
ΔsolnG° (apparent Gibbs energy of dissolution) ([5]; NMP+water, x1=0.800): 9.52 kJ·mol^–1
ΔsolnH° (apparent enthalpy of dissolution) ([5]; NMP+water, x1=0.800): 24.10 kJ·mol^–1
ΔsolnS° (apparent entropy of dissolution) ([5]; NMP+water, x1=0.800): 48.13 J·mol^–1·K^–1
TΔsolnS° ([5]; NMP+water, x1=0.900): 10.89 kJ·mol^–1
ΔsolnG° (apparent Gibbs energy of dissolution) ([5]; NMP+water, x1=0.900): 8.60 kJ·mol^–1
ΔsolnH° (apparent enthalpy of dissolution) ([5]; NMP+water, x1=0.900): 19.49 kJ·mol^–1
ΔsolnS° (apparent entropy of dissolution) ([5]; NMP+water, x1=0.900): 35.93 J·mol^–1·K^–1
TΔsolnS° ([5]; neat NMP, x1=1.000): 13.06 kJ·mol^–1
ΔsolnG° (apparent Gibbs energy of dissolution) ([5]; neat NMP, x1=1.000): 7.99 kJ·mol^–1
ΔsolnH° (apparent enthalpy of dissolution) ([5]; neat NMP, x1=1.000): 21.05 kJ·mol^–1
ΔsolnS° (apparent entropy of dissolution) ([5]; neat NMP, x1=1.000): 43.10 J·mol^–1·K^–1
Ideal mole fraction solubility (x3^id) ([6]; T=293.15 K): 2.607 × 10^–3 mole fraction
Ideal mole fraction solubility (x3^id) ([6]; T=298.15 K): 3.079 × 10^–3 mole fraction
Ideal mole fraction solubility (x3^id) ([6]; T=303.15 K): 3.627 × 10^–3 mole fraction
Ideal mole fraction solubility (x3^id) ([6]; T=308.15 K): 4.260 × 10^–3 mole fraction
Ideal mole fraction solubility (x3^id) ([6]; T=313.15 K): 4.991 × 10^–3 mole fraction
TΔsolnS° ([6]; ideal, Thm=303.0 K): 10.61 kJ·mol^–1
ΔsolnG° (apparent Gibbs energy of dissolution) ([6]; ideal, Thm=303.0 K): 14.16 kJ·mol^–1
ΔsolnH° (apparent enthalpy of dissolution) ([6]; ideal, Thm=303.0 K): 24.78 kJ·mol^–1
ΔsolnS° (apparent entropy of dissolution) ([6]; ideal, Thm=303.0 K): 35.03 J·mol^–1·K^–1
